For one molecule, Appearance and Hygroscopic weight gain results are on record in patent US20260216108A1, “PHARMACEUTICAL COMPOSITION CONTAINING A MITOPHAGY INDUCER” (HANGZHOU PHECDAMED CO., LTD., priority 2023, published 2026).

Series [1] can be described thus: Compatibility test of API and auxiliary materials: appearance. Format: physicochemical. The following applies: opened. The text has this: The experimental steps are as follows:
1. Taking out the sample according to the sampling time point set in the raw material and auxiliary material compatibility scheme (see Table 1).
2. Recording the appearance of the sample taken out. Appearance abnormalities include: (1) caking, (2) liquefaction, (3) discoloration.
(§1) The commonly used auxiliary materials for oral solid preparations are selected to mix with TJ0113 raw material in different proportions, placed under different conditions, and taken out at different time points respectively to judge the compatibility of the raw and auxiliary materials by using appearance, hygroscopic weight gain, content and relevant substances as indicators. According to the auxiliary material manual, the auxiliary materials used are commonly used auxiliary materials for oral solid preparations, and have been included in the current edition of the Chinese Pharmacopoeia, each auxiliary material has a stable nature. In order to objectively evaluate the compatibility of raw material and auxiliary materials used, the compatibility test was conducted on the raw material and each auxiliary material.
The ratio of the raw and auxiliary materials is set according to the “Basic Technical Guidance Principles for Research on Chemical Drug Preparations” and the preparation specifications, the auxiliary materials with a larger amount (such as lactose, microcrystalline cellulose) are mixed according to the ratio of main drug:diluent=1:5; the auxiliary materials with a moderate amount (such as croscarmellose sodium) are mixed according to the ratio of main drug:disintegrant=1:1; the auxiliary materials with a smaller amount (such as magnesium stearate) are mixed according to the ratio of main drug:lubricant=10:1. The manufacturer information and the ratio of raw and auxiliary materials for the compatibility experiment are shown in Table 1 below: […]

Series [2] is described as follows: Compatibility test of API and auxiliary materials: hygroscopic weight gain. Format: physicochemical. Particulars: opened.
Text: 3. Detecting the hygroscopic weight gain of the sample.
as §1
The ratio of the raw and auxiliary materials is set according to the “Basic Technical Guidance Principles for Research on Chemical Drug Preparations” and the preparation specifications, the auxiliary materials with a larger amount (such as lactose, microcrystalline cellulose) are mixed according to the ratio of main drug:diluent=1:5; the auxiliary materials with a moderate amount (such as croscarmellose sodium) are mixed according to the ratio of main drug:disintegrant=1:1; the auxiliary materials with a smaller amount (such as magnesium stearate) are mixed according to the ratio of main drug:lubricant=10:1. The manufacturer information and the ratio of raw and auxiliary materials for the compatibility experiment are shown in Table 1 below:
Placing the samples under experimental conditions of high temperature (60° C.), high humidity (92.5% RH), acceleration (40° C./75% RH) and illumination (visible light 5500 Lux±500 Lux, near ultraviolet light 85 μw/cm2), […] Submitting the samples for relevant indicator testing (test items include appearance, hygroscopic weight gain, content and relevant substances), and comparing the test results with the control samples (raw material).

For the molecule `O=C(O)C[S+]([O-])c1cc(NS(=O)(=O)c2ccc(Br)cc2)c2ccccc2c1O` (stereo not drawn) [API], the Appearance entry was “gray powder” in series [1] (40° C./75% RH, 30 d); “gray powder” in series [1] (92.5% RH, 30 d); “turned into red, and their lower layers did not change color” in series [1] (illumination, 30 days). For the same molecule, the Hygroscopic weight gain in series [2] (40° C./75% RH, 10 d) is −3.6; in series [2] (40° C./75% RH, 30 d), −4.2; in series [2] (92.5% RH, 10 d), 5.5.
